Laboratory results: patent US9409952B2, “Peptide-compound cyclization method” (Chugai Seiyaku Kabushiki Kaisha, priority 2011, dated 2016)
Like-named read-outs stand apart in the source and are kept apart here. Starred links: 1 amine or outer side, 2 acyl side, 3 side chain; linkers in the order of their positions; H or OH if unused. Positions of bridges follow the written chain, without caps; N, C: chain ends. Non-standard residues stand in square brackets, D forms with d. Residues, ends and D or L forms follow the SMILES beside them. *: point of attachment. Phe(4-(CH2)5CO) = O=C([C@H](Cc1ccc(CCCCCC(=O)[*:3])cc1)N[*:1])[*:2]; NMeF = CN[C@@H](Cc1ccccc1)C(=O)O; NMeGABA = CN(CCCC(=O)[*:2])[*:1]; NMeI = CC[C@H](C)[C@H](NC)C(=O)O; NMeβAla = CN(CCC(=O)[*:2])[*:1]; Aoc(2) = CCCCCC[C@H](N)C(=O)O; NMeL = CN[C@@H](CC(C)C)C(=O)O; NMeV = CN[C@H](C(=O)O)C(C)C; NMeS = CN[C@@H](CO)C(=O)O; NMeA = CN[C@@H](C)C(=O)O; Piperidide = C1CCN(*)CC1; dNMeA = CN[C@H](C)C(=O)O; β3hA = C[C@H](N)CC(=O)O; Abu = CC[C@H](N)C(=O)O; Sar = CNCC(=O)O; tBu = CC(C)(C)*

Key:
[1] = PAMPA (parallel artificial membrane permeability assay); assay type: in vitro ADME; settings: PAMPA
Procedure, shortened: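 Artificial membrane was 10% (w/v) egg lecithin plus 0.5% (w/v) cholesterol in dodecane on a PVDF filter. A 10 mM DMSO stock was added at 0.5% (v/v) to donor buffer (50 mM MOPSO, pH 6.5, 5.0% glycocholic acid). After 18 h at 37 °C, LC/MS or LC/UV gave donor and acceptor levels for Pe.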

[2] = Metabolic stability in human hepatic microsome; assay type: in vitro ADME; settings: microsomes
[3] = membrane permeation rate (Pe), 50 mM MOPSO buffer pH 6.5 with 5.0% glycocholic acid, 37° C., 18 hours, read-out: iPAMPA Pe
[4] = pH 7.4, human hepatic microsome, NADPH(+), read-out: CL NADPH(+)

SMILES: CC[C@H](C)[C@@H]1NC(=O)[C@H](CC(C)C)N(C)C(=O)[C@H](Cc2ccccc2)NC(=O)[C@H](C)N(C)C(=O)C[C@@H](C(=O)N(C)[C@@H](Cc2ccccc2)C(=O)N(C)[C@@H](Cc2ccccc2)C(=O)N[C@@H](C)C(=O)N2CCCCC2)NC(=O)[C@H](C(C)C)N(C)C(=O)[C@H](C)N(C)C(=O)[C@H](C)N(C)C(=O)[C@H]([C@@H](C)O)NC(=O)CN(C)C1=O [DP-394] ([NMeA]F[NMeL]I[Sar]T[NMeA][NMeA][NMeV]D[NMeF][NMeF]A-Piperidide; lactam N-10)
- Papp at 18 hours, 50 µM [1, 3]: 22 ×10⁻⁶ cm/s
- microsomal CLint at 1 uM [2, 4]: 10 µL/min/mg

SMILES: CC(C)C[C@H]1C(=O)N[C@@H](COC(C)(C)C)C(=O)N(C)[C@@H](Cc2ccccc2)C(=O)N(C)[C@@H](C)C(=O)N[C@@H](Cc2ccccc2)C(=O)N(C)[C@@H](C(C)C)C(=O)N[C@H](C(=O)N2CCCCC2)Cc2ccc(cc2)CCCCCC(=O)N[C@@H]([C@@H](C)O)C(=O)NCC(=O)N1C [DP-848] (TG[NMeL]S(tBu)[NMeF][NMeA]F[NMeV][Phe(4-(CH2)5CO)]-Piperidide; lactam N-9)
- Papp at 18 hours, 50 µM [1, 3]: 30 ×10⁻⁶ cm/s
- microsomal CLint at 1 uM [2, 4]: 148 µL/min/mg

SMILES: CC(C)C[C@H]1C(=O)N[C@H](C(=O)N2CCCCC2)CC(=O)N(C)CCC(=O)N[C@@H]([C@@H](C)O)C(=O)N(C)CC(=O)N[C@@H](COC(C)(C)C)C(=O)N(C)[C@@H](Cc2ccccc2)C(=O)N1C [DP-750] ([NMeβAla]T[Sar]S(tBu)[NMeF][NMeL]D-Piperidide; lactam N-7)
- Papp at 18 hours, 50 µM [1, 3]: 13 ×10⁻⁶ cm/s
- microsomal CLint at 1 uM [2, 4]: 49 µL/min/mg

SMILES: CC(C)C[C@@H]1NC(=O)[C@H]([C@@H](C)O)NC(=O)[C@H](CC(C)C)N(C)C(=O)[C@H](C)N(C)C(=O)[C@H](Cc2ccccc2)N(C)C(=O)[C@H](Cc2ccccc2)NC(=O)[C@H](CC(C)C)N(C)C(=O)CCN(C)C(=O)C[C@@H](C(=O)N(C)[C@@H](Cc2ccccc2)C(=O)N[C@@H](C)C(=O)N2CCCCC2)NC(=O)[C@H](CC(C)C)N(C)C1=O [DP-351] ([NMeβAla][NMeL]F[NMeF][NMeA][NMeL]TL[NMeL]D[NMeF]A-Piperidide; lactam N-10)
- Papp at 18 hours, 50 µM [1, 3]: 63 ×10⁻⁶ cm/s
- microsomal CLint at 1 uM [2, 4]: 51 µL/min/mg

SMILES: CC[C@H](C)[C@H]1C(=O)N(C)[C@@H](CC(C)C)C(=O)N(C)[C@@H](Cc2ccccc2)C(=O)N[C@@H]([C@@H](C)O)C(=O)N(C)[C@@H](Cc2ccccc2)C(=O)N(C)[C@@H](CC(C)C)C(=O)N(C)[C@@H](C)C(=O)N[C@H](C(=O)N2CCCCC2)CC(=O)N[C@H](C)C(=O)N[C@@H](C)C(=O)N(C)[C@@H](CC(C)C)C(=O)N1C [DP-99] ([dA]A[NMeL][NMeI][NMeL][NMeF]T[NMeF][NMeL][NMeA]D-Piperidide; lactam N-11)
- Papp at 18 hours, 50 µM ([1]; pH 6.5): 56 ×10⁻⁶ cm/s
- microsomal CLint at 1 uM ([2]; human, pH 7.4, CL NADPH(+)): 52 µL/min/mg

SMILES: CC(C)C[C@H]1C(=O)N[C@@H]([C@@H](C)O)C(=O)N(C)[C@@H](C)C(=O)N(C)[C@@H](CC(C)C)C(=O)N(C)[C@@H](Cc2ccccc2)C(=O)N[C@@H](COC(C)(C)C)C(=O)N[C@H](C(=O)N2CCCCC2)CC(=O)N(C)CCCC(=O)N(C)[C@@H](C)C(=O)N1C [DP-130] ([NMeGABA][NMeA][NMeL]T[NMeA][NMeL][NMeF]S(tBu)D-Piperidide; lactam N-9)
- Papp at 18 hours, 50 µM [1, 3]: 21 ×10⁻⁶ cm/s
- microsomal CLint at 1 uM [2, 4]: 76 µL/min/mg

SMILES: CC[C@H](C)[C@@H]1NC(=O)[C@H](CC(C)C)N(C)C(=O)CN(C)C(=O)[C@H]([C@@H](C)O)NC(=O)[C@H](Cc2ccccc2)N(C)C(=O)[C@H](CC(C)C)N(C)C(=O)[C@H](C)N(C)C(=O)C[C@@H](C(=O)N2CCCCC2)NC(=O)[C@H](CC(C)C)N(C)C1=O [DP-342] ([NMeA][NMeL][NMeF]T[Sar][NMeL]I[NMeL]D-Piperidide; lactam N-9)
- Papp at 18 hours, 50 µM [1, 3]: 33 ×10⁻⁶ cm/s
- microsomal CLint at 1 uM [2, 4]: 121 µL/min/mg

SMILES: CC(C)C[C@@H]1NC(=O)[C@H](CC(C)C)NC(=O)[C@H](C)N(C)C(=O)C[C@@H](C(=O)N2CCCCC2)NC(=O)[C@H](C(C)C)N(C)C(=O)[C@H](CC(C)C)NC(=O)[C@H](Cc2ccccc2)NC(=O)[C@H]([C@@H](C)O)NC(=O)CN(C)C(=O)[C@H](CC(C)C)NC(=O)[C@H](C)NC1=O [DP-111] ([NMeA]LLAL[Sar]TFL[NMeV]D-Piperidide; lactam N-11)
- Papp at 18 hours, 50 µM ([1]; pH 6.5): 12 ×10⁻⁶ cm/s
- microsomal CLint at 1 uM ([2]; human, pH 7.4, CL NADPH(+)): 17 µL/min/mg

SMILES: CCCCCC[C@@H]1NC(=O)[C@H](CO)N(C)C(=O)C[C@H](C)NC(=O)[C@H](CC(C)C)N(C)C(=O)[C@H](CC(C)C)N(C)C(=O)[C@@H](CC(C)C)NC(=O)[C@H](CC)NC(=O)[C@H](CC(C)C)N(C)C(=O)[C@H](C(C)C)NC(=O)[C@H](CC(C)C)N(C)C(=O)CN(C)C1=O [DP-648] (cyclo([Abu][dL][NMeL][NMeL][β3hA][NMeS][Aoc(2)][Sar][NMeL]V[NMeL]))
- Papp at 18 hours, 50 µM [1, 3]: 53 ×10⁻⁶ cm/s
- microsomal CLint at 1 uM [2, 4]: 109 µL/min/mg

SMILES: CC(C)C[C@@H]1NC(=O)[C@H](Cc2ccccc2)N(C)C(=O)CCN(C)C(=O)C[C@@H](C(=O)N2CCCCC2)NC(=O)[C@H](CC(C)C)N(C)C(=O)[C@H](C)N(C)C(=O)[C@H]([C@@H](C)O)NC(=O)[C@H](CC(C)C)N(C)C(=O)[C@H](Cc2ccccc2)N(C)C1=O [DP-268] ([NMeβAla][NMeF]L[NMeF][NMeL]T[NMeA][NMeL]D-Piperidide; lactam N-9)
- Papp at 18 hours, 50 µM [1, 3]: 50 ×10⁻⁶ cm/s
- microsomal CLint at 1 uM [2, 4]: 508 µL/min/mg

SMILES: CC(C)[C@@H]1NC(=O)[C@H](C)N(C)C(=O)[C@H](C(C)C)N(C)C(=O)CCN(C)C(=O)C[C@@H](C(=O)N(C)[C@@H](Cc2ccccc2)C(=O)N(C)[C@@H](Cc2ccccc2)C(=O)N[C@@H](C)C(=O)N2CCCCC2)NC(=O)[C@H](C)N(C)C(=O)[C@H](C)N(C)C(=O)[C@H]([C@@H](C)O)NC(=O)[C@H](C)N(C)C(=O)[C@H](Cc2ccccc2)N(C)C1=O [DP-450] ([NMeβAla][NMeV][NMeA]V[NMeF][NMeA]T[NMeA][NMeA]D[NMeF][NMeF]A-Piperidide; lactam N-10)
- Papp at 18 hours, 50 µM [1, 3]: 2.3 ×10⁻⁶ cm/s
- microsomal CLint at 1 uM [2, 4]: 17 µL/min/mg

SMILES: CC[C@H](C)[C@H](NC(=O)[C@@H](NC(=O)[C@H](Cc1ccccc1)NC(=O)[C@H](CC(C)C)N(C)C(=O)[C@@H](NC(=O)[C@@H]1CC(=O)N[C@@H](C)C(=O)N(C)[C@@H](C)C(=O)N(C)[C@@H](Cc2ccccc2)C(=O)N[C@@H]([C@@H](C)O)C(=O)N(C)[C@@H](Cc2ccccc2)C(=O)N[C@@H](CC(C)C)C(=O)N2CCC[C@H]2C(=O)N1)[C@@H](C)CC)C(C)C)C(=O)N1CCCCC1 [DP-922] (A[NMeA][NMeF]T[NMeF]LPDI[NMeL]FVI-Piperidide; lactam N-8)
- Papp at 18 hours, 50 µM ([1]; pH 6.5): 0.12 ×10⁻⁶ cm/s
- microsomal CLint at 1 uM ([2]; human, pH 7.4, CL NADPH(+)): 70 µL/min/mg

SMILES: CC(C)C[C@H]1C(=O)N(C)[C@@H](Cc2ccccc2)C(=O)N[C@@H]([C@@H](C)O)C(=O)N(C)[C@@H](C)C(=O)N[C@@H](C)C(=O)N(C)[C@@H](Cc2ccccc2)C(=O)N[C@@H](C)C(=O)N(C)[C@@H](C(C)C)C(=O)N(C)[C@@H](C)C(=O)N[C@H](C(=O)N(C)[C@@H](Cc2ccccc2)C(=O)N[C@@H](C)C(=O)N2CCCCC2)CC(=O)N(C)[C@H](C)C(=O)N1C [DP-348] ([dNMeA][NMeL][NMeF]T[NMeA]A[NMeF]A[NMeV][NMeA]D[NMeF]A-Piperidide; lactam N-11)
- Papp at 18 hours, 50 µM [1, 3]: 19 ×10⁻⁶ cm/s
- microsomal CLint at 1 uM [2, 4]: 17 µL/min/mg

SMILES: CC[C@H](C)[C@H]1C(=O)N[C@H](C(=O)N2CCCCC2)CC(=O)N[C@H](C)C(=O)N(C)[C@@H](Cc2ccccc2)C(=O)N(C)[C@@H](CC(C)C)C(=O)N[C@@H]([C@@H](C)O)C(=O)N(C)CC(=O)N(C)[C@@H](CC(C)C)C(=O)N[C@@H](COC(C)(C)C)C(=O)N1C [DP-77] ([dA][NMeF][NMeL]T[Sar][NMeL]S(tBu)[NMeI]D-Piperidide; lactam N-9)
- Papp at 18 hours, 50 µM ([1]; pH 6.5): 21 ×10⁻⁶ cm/s
- microsomal CLint at 1 uM ([2]; human, pH 7.4, CL NADPH(+)): 33 µL/min/mg

SMILES: CC[C@H](C)[C@@H]1NC(=O)[C@H](C)N(C)C(=O)[C@H]([C@@H](C)O)NC(=O)[C@H](C)N(C)C(=O)[C@H](C(C)C)N(C)C(=O)[C@H](Cc2ccccc2)NC(=O)CN(C)C(=O)C[C@@H](C(=O)N(C)[C@@H](Cc2ccccc2)C(=O)N[C@@H](C)C(=O)N2CCCCC2)NC(=O)[C@H](C)N(C)C(=O)[C@H](CC(C)C)N(C)C1=O [DP-195] ([Sar]F[NMeV][NMeA]T[NMeA]I[NMeL][NMeA]D[NMeF]A-Piperidide; lactam N-10)
- Papp at 18 hours, 50 µM [1, 3]: 8 ×10⁻⁶ cm/s
- microsomal CLint at 1 uM [2, 4]: 52 µL/min/mg

SMILES: CC(C)C[C@H]1C(=O)N(C)[C@@H](CC(C)C)C(=O)N[C@H](C(=O)N2CCCCC2)CC(=O)N[C@@H](C(C)C)C(=O)N(C)[C@@H](Cc2ccccc2)C(=O)N[C@@H]([C@@H](C)O)C(=O)N(C)CC(=O)N[C@@H](COC(C)(C)C)C(=O)N1C [DP-693] (V[NMeF]T[Sar]S(tBu)[NMeL][NMeL]D-Piperidide; lactam N-8)
- Papp at 18 hours, 50 µM [1, 3]: 35 ×10⁻⁶ cm/s
- microsomal CLint at 1 uM [2, 4]: 246 µL/min/mg

SMILES: CC[C@H](C)[C@H]1C(=O)N[C@@H](CC(C)C)C(=O)NCC(=O)N(C)[C@@H](CC(C)C)C(=O)N[C@@H](Cc2ccccc2)C(=O)N[C@@H]([C@@H](C)O)C(=O)N(C)[C@@H](C)C(=O)N[C@H](C(=O)N2CCCCC2)CC(=O)N(C)[C@@H](C)C(=O)N[C@@H](Cc2ccccc2)C(=O)N(C)[C@@H](C(C)C)C(=O)N[C@@H](CC(C)C)C(=O)N1C [DP-89] ([NMeA]F[NMeV]L[NMeI]LG[NMeL]FT[NMeA]D-Piperidide; lactam N-12)
- Papp at 18 hours, 50 µM ([1]; pH 6.5): 23 ×10⁻⁶ cm/s
- microsomal CLint at 1 uM ([2]; human, pH 7.4, CL NADPH(+)): 58 µL/min/mg
